According to paper PMC12508156, “Non-canonical dihydrolipoyl transacetylase promotes chemotherapy resistance via mitochondrial tetrahydrofolate signaling” (Nature Communications, 2025):

System: NADPH
Assay: NADPH level (NADP/NADPH-Glo)
Assay type: cell-based, human
Protocol: Cellular metabolic states were examined through various assays. To gauge the levels of total intracellular or mitochondrial reactive oxygen species (ROS), cells were stained with CM-H2DCFDA or mitoSOX, respectively. Intracellular H2O2, NADPH, acetyl-CoA, and GSH/GSSG ratios were quantified using commercial assay kits as listed in the Reagents. Intracellular ATP levels were determined utilizing the ATP bioluminescent somatic cell assay and normalized to the total protein concentrations. The de novo synthesized RNA and proteins were assessed in cancer cells using commercial assays following the manufacturer’s protocols. In brief, O-propargyl-puromycin or uridine analog, 5-EU, was applied to stop translation or modify RNA. Polypeptides or modified RNA were measured using fluorescent azide with Ex/Em at 494/521 nm. PDC activity was determined by measuring the reduction of NAD+ to NADH during the conversion of pyruvate into acetyl-CoA. […]
A549cisR (a) and KB-3-1cisR (b) cells were transduced with control or […]
µg/ml; KB-3-1cisR: 5 µg/ml) for 24 h. The GSH/GSSG ratio and relative NADPH levels were measured using GSH/GSSG-Glo Assay and NADP/NADPH-Glo Assay, respectively. Error bars represent SD and are from 4 independent biological replicates for the upper panels of (a,b) and 3 for the lower panels of (a,b). P values were determined by one-way ANOVA.
(1 picture or pasted object on this page, not shown here)

SMILES: N.N.[Cl][Pt][Cl] [cisplatin]
- NADPH (A549cisR cells, pLKO.1, n=1): 0.7373
- NADPH (A549cisR cells, pLKO.1, n=2): 0.7802
- NADPH (A549cisR cells, pLKO.1, n=3): 0.7845
- NADPH (A549cisR cells, shDLAT, n=1): 0.3926
- NADPH (A549cisR cells, shDLAT, n=2): 0.3967
- NADPH (A549cisR cells, shDLAT, n=3): 0.3159
- NADPH (A549cisR, CTL, sheet Figure 5G, replicate n=1): 0.971
- NADPH (A549cisR, CTL, sheet Figure 5G, replicate n=2): 0.9727
- NADPH (A549cisR, CTL, sheet Figure 5G, replicate n=3): 1.056
- NADPH (A549cisR, shDLAT+Flag-MTHFD2 (K44Q), sheet Figure 5G, replicate n=1): 1.569
- NADPH (A549cisR, shDLAT+Flag-MTHFD2 (K44Q), sheet Figure 5G, replicate n=2): 1.336
- NADPH (A549cisR, shDLAT+Flag-MTHFD2 (K44Q), sheet Figure 5G, replicate n=3): 1.475
- NADPH (A549cisR, shDLAT+Flag-MTHFD2 (K44R), sheet Figure 5G, replicate n=1): 0.5654
- NADPH (A549cisR, shDLAT+Flag-MTHFD2 (K44R), sheet Figure 5G, replicate n=2): 0.5995
- NADPH (A549cisR, shDLAT+Flag-MTHFD2 (K44R), sheet Figure 5G, replicate n=3): 0.6728
- NADPH (A549cisR, shDLAT, sheet Figure 5G, replicate n=1): 0.5978
- NADPH (A549cisR, shDLAT, sheet Figure 5G, replicate n=2): 0.6166
- NADPH (A549cisR, shDLAT, sheet Figure 5G, replicate n=3): 0.6336
- NADPH (KB-3-1cisR cells, pLKO.1, n=1): 0.8565
- NADPH (KB-3-1cisR cells, pLKO.1, n=2): 0.8236
- NADPH (KB-3-1cisR cells, pLKO.1, n=3): 0.8268
- NADPH (KB-3-1cisR cells, shDLAT, n=1): 0.3931
- NADPH (KB-3-1cisR cells, shDLAT, n=2): 0.4089
- NADPH (KB-3-1cisR cells, shDLAT, n=3): 0.429
- NADPH (KB-3-1cisR, CTL, sheet Figure 5G, replicate n=1): 0.9984
- NADPH (KB-3-1cisR, CTL, sheet Figure 5G, replicate n=2): 0.9855
- NADPH (KB-3-1cisR, CTL, sheet Figure 5G, replicate n=3): 1.016
- NADPH (KB-3-1cisR, shDLAT+Flag-MTHFD2 (K44Q), sheet Figure 5G, replicate n=1): 1.788
- NADPH (KB-3-1cisR, shDLAT+Flag-MTHFD2 (K44Q), sheet Figure 5G, replicate n=2): 1.788
- NADPH (KB-3-1cisR, shDLAT+Flag-MTHFD2 (K44Q), sheet Figure 5G, replicate n=3): 1.859
- NADPH (KB-3-1cisR, shDLAT+Flag-MTHFD2 (K44R), sheet Figure 5G, replicate n=1): 0.4153
- NADPH (KB-3-1cisR, shDLAT+Flag-MTHFD2 (K44R), sheet Figure 5G, replicate n=2): 0.3927
- NADPH (KB-3-1cisR, shDLAT+Flag-MTHFD2 (K44R), sheet Figure 5G, replicate n=3): 0.4088
- NADPH (KB-3-1cisR, shDLAT, sheet Figure 5G, replicate n=1): 0.404
- NADPH (KB-3-1cisR, shDLAT, sheet Figure 5G, replicate n=2): 0.4217
- NADPH (KB-3-1cisR, shDLAT, sheet Figure 5G, replicate n=3): 0.4378
